Columns and labels:
[1] = tested on: heterozygous A205V/A122T lines; test: field phytotoxicity trial North Dakota 2006 (Example 3); format: in vivo, sunflower; conditions: 200 g ai/ha of imazamox, 21 DAT
Description: (§1) • Spray volume: 10 gallons per acre (GPA) (or 100 liters/ha) for backpack sprayer or 20 GPA (or 200 liters/ha) for tractor mounted boom • Growth Stage at Herbicide Application: 2-4 leaves • Entry 15 (WT Maintainer line) was left unsprayed in all treatment blocks.
(§2) Phytotoxicity ratings were assessed at 7 and 21 days following herbicide application.
(§3) The data was subjected to an ANOVA analysis and the means from the 3 repetitions are presented in Table 7 (phytotoxicity at 7 days post-treatment) and Table 8 (phytotoxicity at 21 days post-treatment).

[2] = tested on: homozygous A205V/A205V lines; test: as above; format: in vivo, sunflower; conditions: 200 g ai/ha of imazamox, 21 DAT
Description: as §1, §2, §3

[3] = tested on: homozygous A122T/A122T lines; test: as above; format: in vivo, sunflower; conditions: 200 g ai/ha of imazamox, 21 DAT
Description: as §1, §2, §3

[4] = tested on: sunflower line BTK112 (conventional); test: tolerance to imidazolinones, greenhouse (Example 8)
[5] = tested on: sunflower line BTI-OL-M1511; test: as above; conditions: 160 gr/ha at V4, fourteen days after treatment
[6] = tested on: lines carrying at least one allele A122T (A122T/A122T, A122T/A205V, A122/WT); test: field trial, imazapyr at V8 or R1 stage (Example 4); conditions: 160 g ai/ha applied at R1; 14 DAT
[7] = tested on: sunflower line OB712 (high oleic); test: tolerance to imidazolinones, greenhouse (Example 8)
[8] = tested on: heterozygous A205V entries; test: field phytotoxicity trial North Dakota 2006 (Example 3); format: in vivo, sunflower; conditions: 160 g ai/ha of imazapyr, 21 DAT
Description: as §1, §2, §3

[9] = 160 gr/ha at V4, fourteen days after treatment

| SMILES | phytotoxicity [1] | phytotoxicity [2] | phytotoxicity [3] | outcome of the herbicide treatment ([4]; 160 gr/ha at V4) | Mean Phytotoxicity Index (0-9) [4, 9] | Mean Phytotoxicity Index (0-9) [5] | PI (0-50), group with chlorosis symptoms only [6] | outcome of the herbicide treatment ([7]; 160 gr/ha at V4) | Mean Phytotoxicity Index (0-9) [7, 9] | phytotoxicity [8] |
| --- | --- | --- | --- | --- | --- | --- | --- | --- | --- | --- |
| COCc1cnc(C2=NC(C)(C(C)C)C(=O)N2)c(C(=O)O)c1 (stereo not shown) [imazamox] | 2-3% | 15-22% | 3-5% |  |  |  |  |  |  |  |
| CC(C)C1(C)N=C(c2ncccc2C(=O)O)NC1=O (stereo not shown) [imazapyr] |  |  |  | killed | 9 | 0.5 | less than 11.7 | killed | 9 | 20-43% |

Source: US20150148234A1, “HERBICIDE-RESISTANT SUNFLOWER PLANTS WITH MULTIPLE HERBICIDE RESISTANT ALLELES OF AHASL1 AND METHODS OF USE” (NIDERA S.A., priority 2013, published 2015)
